Literature values, collected in article PMC3714282, “Pharmacometabolomics of Response to Sertraline and to Placebo in Major Depressive Disorder – Possible Role for Methoxyindole Pathway” (PLoS ONE, 2013).

Tested on: arylalkylamine N-acetyltransferase (AANAT) mRNA
Set-up: method as in PMID 9951564
Details: animal studies, chronic administration; cited from earlier work

Structure (SMILES): CNCCC(Oc1ccc(C(F)(F)F)cc1)c1ccccc1 (stereo not shown) [fluoxetine]
- brain arylalkylamine N-acetyltransferase (AANAT) mRNA: several-fold increase
